Reference: patent US11584712B2, “Alkylamine-substituted perthiocarbamates as dual precursors to hydropersulfide and carbonyl sulfide” (The Johns Hopkins University, priority 2020, dated 2023)

Tests used:
[1] = RSSH generation and quantification of cyclic ureas by UPLC-MS with HPE-IAM or NEM trap; type: physicochemical; settings: precursor 10 μM, pH 7.4 ammonium bicarbonate buffer; for yield of cyclic urea byproduct: HPE-IAM 500 μM (50 equiv.), 37° C.; for cyclic urea byproduct formation: HPE-IAM 500 μM, 37° C. (7a 15 min, 7c 7 h)
Method: Precursor 1a was dissolved in DMSO to afford a 1 mM stock solution. Similarly, HPE-IAM and N-ethyl maleimide (NEM) were independently dissolved in DMSO to obtain 50 mM stock solutions. To a 20 mL scintillation vial, HPE-IAM or NEM (30 μL, 50 mM) was added in pH 7.4 ammonium bicarbonate buffer (2.94 mL) containing the DTPA (100 μM). The resulting solution was pre-incubated at 37° C. for 10 min. Precursor 1a (30 μL, 1 mM) was then added into the mixture and incubated for 15 min at 37° C. An aliquot of the reaction mixture (500 μL) was withdrawn, 4-hydroxyphenylacetamide (10 μM) was added as internal standard, and analyzed using UPLC-MS as follows: Mobile phase: 0-1 min 90% water+0% ACN+10% formic acid (0.1%); 1-7.5 min gradient up to 10% water+80% ACN+10% formic acid (0.1%); 7.5-8.4 min 10% water+80% ACN+10% formic acid (0.1%); 8.4-8.5 min gradient up to 90% water+0% ACN+10% formic acid (0.1%), 8.5-10 min 90% water+0% ACN+10% formic acid (0.1%). Flow rate=0.3 mL/min. […] These studies were conducted at least in triplicate and representative spectra are presented.
Precursors 7a-d (10 μM) were independently incubated with HPE-IAM (500 μM) in pH 7.4 ammonium bicarbonate buffer (50 mM) containing DTPA (100 μM) at 37° C. The reaction mixture (500 μL) was analyzed using UPLC-MS. To quantify 2a-d generated from these precursors, a calibration curve of each individual cyclic urea with known concentrations was independently generated.
Precursor 1a was dissolved in DMSO to afford a 1 mM stock solution. Similarly, HPE-IAM was dissolved in DMSO to obtain a 50 mM stock solution. To a 20 mL scintillation vial, HPE-IAM (30 μL, 50 mM) was added in pH 7.4 ammonium bicarbonate buffer (2.94 mL) containing the DTPA (100 μM). The resulting solution was pre-incubated at 37° C. for 10 min. Precursor 1a (30 μL, 1 mM) was then added into the mixture and incubated for 15 min at 37° C. An aliquot of the reaction mixture (500 μL) was withdrawn and analyzed using UPLC-MS as follows: Mobile phase: 0-1 min 90% water+0% ACN+10% formic acid (0.1%); 1-7.5 min gradient up to 10% water+80% ACN+10% formic acid (0.1%); 7.5-8.4 min 10% water+80% ACN+10% formic acid (0.1%); 8.4-8.5 min gradient up to 90% water+0% ACN+10% formic acid (0.1%), 8.5-10 min 90% water+0% ACN+10% formic acid (0.1%). Flow rate=0.3 mL/min. The mass signals for product of RSSH trapping with HPE-IAM were obtained via deconvolution using MassLynx 4.1 software. These studies were conducted at least in triplicate and representative spectra are presented.
Precursors 7a-d (10 μM) were independently incubated with HPE-IAM (500 μM) in pH 7.4 ammonium bicarbonate buffer (50 mM) containing DTPA (100 μM) at 37° C. This reaction mixture was analyzed by UPLC-MS as follows: Mobile phase: 0-1 min 90% water+0% ACN+10% formic acid (0.1%); 1-7.5 min gradient up to 10% water+80% ACN+10% formic acid (0.1%); 7.5-8.4 min 10% water+80% ACN+10% formic acid (0.1%); 8.4-8.5 min gradient up to 90% water+0% ACN+10% formic acid (0.1%), 8.5-10 min 90% water+0% ACN+10% formic acid (0.1%). Flow rate=0.3 mL/min. To quantify 2a-d generated from these precursors, a calibration curve of each individual cyclic urea with known concentrations was independently generated.

[2] = test system: isolated-perfused murine heart; assay: Isolated perfused heart (Langendorff) ischemia-reperfusion, infarct size by TTC staining; settings: ex vivo mouse heart, 20 min global ischemia, 100 μM infused first 7 min of 90 min reperfusion; KH control 42%
Text: Male C57BL/6J mice obtained from Jackson Laboratories (Bar Harbor, Me., USA) were used for all experiments. Mice were between 12 and 14 weeks of age at the time of experimentation. All animals received humane care in compliance with the “Principles of Laboratory Animal Care” formulated by the National Society for Medical Research and the “Guide for the Care and Use of Laboratory Animals” published by the US National Institutes of Health. The Animal Care and Use Committee from Johns Hopkins University approved of this study.
After anticoagulation with heparin and cervical dislocation, a thoracotomy was performed and the heart was quickly excised and placed in ice-cold Krebs-Henseleit buffer (in mmol/L: 11.1 D-glucose, 1.2 MgSO4, 1.2 KH2PO4, 4.7 KCl, 118 NaCl, 2 CaCl2), 25 NaHCO3). The aorta was cannulated, and the heart was perfused with Krebs-Henseleit buffer (oxygenated with 95% O2/5% CO2 and maintained at pH 7.4) in retrograde fashion at a constant pressure of 80 mm/Hg at 37° C. After baseline equilibration for 20 min, mouse hearts were subjected to 20 min of no-flow global ischemia followed by 90 min of reperfusion. Pharmacological postconditioning with 7b (100 μM) was performed at the onset of reperfusion for 7 min. Hearts were then reperfused for a total of 90 min. Control hearts received no pharmacological postconditioning. […]

Row | Compound | yield of cyclic urea byproduct [1] | cyclic urea byproduct formation [1] | infarct size [2]
1 | 3-(((3-acetamido-4-methoxy-2-methyl-4-oxobutan-2-yl)disulfannecarbonyl)(methyl)amino)-N-methylpropan-1-aminium [Precursor 7c] | 88% | 8.8 ± 0.2 µM | 
2 | CNCCN(C)C(=O)SSC(C)(C)C(NC(C)=O)C(=O)OC (centres unmarked) [Precursor 7a, 2-(((3-acetamido-4-methoxy-2-methyl-4-oxobutan-2-yl)disulfannecarbonyl)(methyl)amino)-N-methylethan-1-aminium] | 87% | 8.7 ± 0.4 µM | 
3 | COC(=O)C(NC(C)=O)C(C)(C)SSC(=O)N(C)CCN (centres unmarked) [Precursor 7b, 2-(((3-acetamido-4-methoxy-2-methyl-4-oxobutan-2-yl)disulfannecarbonyl)(methyl)amino)ethan-1-aminium] |  |  | 16%
